“Also recorded” adds a separate entry of the source.

The test system of experiment [1] is SUM149 cells. Put plainly: Colony formation (clonogenic) assay, SUM149 cells. The class given is cell-based, human. The following applies: vs DMSO. Here is the method: Cell growth was assessed by colony formation assays: MDA-IBC3 cells (5.5×10^4 cells/mL) or SUM149 (5.0×10^4 cells/mL) were seeded into 6-well plates. Twenty-four hours later, siRNAs were added to the cells. Twenty-four hours (MDA-IBC3 cells) or forty-eight hours (SUM149) after transfection, 1500 cells for MDA-IBC3 and 1000 cells for SUM149 were seeded into 10-cm Petri dishes containing Hams F-12 (10% FBS, 0.1% antibiotic/antimycotic solution, 0.001% insulin from bovine pancreas, and 0.005% hydrocortisone), and incubated at 37° C. Twelve days (SUM149 cells) or 19 days (MDA-IBC3 cells) later, colony-forming cells were stained with 0.5% crystal violet solution. Colonies (with at least 50 cells) were counted under a light microscope (Olympus CKX41) in five random fields with a total magnification of 10×.
(§1) For cell viability, SUM149 (5.0×10^4 cells/mL) were seeded in 96-well plates. Twenty-four hours later, cells were treated with serial dilutions (0.01 μM, 0.1 μM, 1.0 μM, 10 μM, and 100 μM, final concentrations) of the LCN2 inhibitors. Seventy-two hours after treatment, cell viability was performed as above described, taking the DMSO (1%) treated OD values as the normalization control. For colony formation assays, SUM149 cells (5.0×10^4 cells/mL), MCF7 (4.5×10^4 cells/mL), MCF7-LCN2 (4.5×10^4 cells/mL), or MCF7-EV (4.5×10^4 cells/mL) were seeded into 24-well plates and incubated at 37° C. Twenty-four hours later, LCN2 inhibitors bought to Asinex corporation (North chestnut, NC) were dissolved in DMSO (0.2%) and added to the cells at 10 μM, 1 μM, and 0.1 μM (final concentrations). NT cells and DMSO (0.2%) treated cells were used as controls. SUM149 (500 cells) and MCF7 (3,000 cells) cells were seeded in 6-well plates per treatment for colony formation assays.

For experiment [2], the system named is MCF7-LCN2 cells. The experiment can be described thus: Colony formation assay, MCF7-LCN2 cells. The class given is cell-based, human. The conditions noted are these: vs untreated cells. As for the experimental part: (§2) Ectopic LCN2 expression was performed in breast cancer MCF7 cells. Human LCN2 open reading frame (LCN2ORF) (RC207685, OriGene, Rockville, MD) or empty vector pCMV6-Entry (MCF7-EV) (PS100001, OriGene, Rockville, MD was stable transfected into MCF7 cells. MCF7 cells (4.0×10^4 cells/mL) were seeded in 6-well plates and incubated at 37° C. Twenty-four hours later, 5 μg of LCN2-ORF were mixed with Lipofectamine 2000 RNAiMax transfection reagent (Life Technologies) at a 1:1 (v/v) (plasmid: transfection reagent) in serum and antibiotic-free Opti-MEM medium (Life Technologies) and incubated at 37° C. Six hours later medium was replaced with MCF7 culture media and incubated at 37° C. Forty-eight hours later the antibiotic neomycin was added at a final concentration of 1.8 mg/mL for the selection of transduced MCF7 cells. After 2-3 weeks, independent colonies were picked and cultured separately as independent clones.
as §1

Experiment [3] deals with SUM149 cells. Put plainly: Cell viability, Alamar Blue, SUM149 cells. It is filed as cell-based. The conditions noted are these: Homo sapiens, 72 hours, vs DMSO, read-out: reduction of cell viability. As for the experimental part:
MDA-IBC3 cells (5.5×10^4 cells/mL) or SUM149 (5.0×10^4 cells/mL) were seeded in 96-well plates. Twenty-four hours later, cells were transiently transfected with serial dilutions of LCN2-siRNA and NC-siRNA (12.5 nM, 25 nM, 50 nM, and 100 nM final concentrations) with Lipofectamine 2000 RNAiMax. Seventy-two hours after transfection, the medium was removed, and cell viability was measured using Alamar blue dye (Invitrogen, CA, USA) as previously described by. Optical density (OD) values were obtained spectrophotometrically in a plate reader (Bio-Rad) after 3 hours of dye incubation. In all cases, percentages of cell viability were obtained after blank OD subtraction, taking the untreated cells values as a normalization control.
For cell viability, SUM149 (5.0×10^4 cells/mL) were seeded in 96-well plates. Twenty-four hours later, cells were treated with serial dilutions (0.01 μM, 0.1 μM, 1.0 μM, 10 μM, and 100 μM, final concentrations) of the LCN2 inhibitors. Seventy-two hours after treatment, cell viability was performed as above described, taking the DMSO (1%) treated OD values as the normalization control. For colony formation assays, SUM149 cells (5.0×10^4 cells/mL), MCF7 (4.5×10^4 cells/mL), MCF7-LCN2 (4.5×10^4 cells/mL), or MCF7-EV (4.5×10^4 cells/mL) were seeded into 24-well plates and incubated at 37° C. […]
A general note: Resazurin is reduced to fluorescent resorufin, in cell work by metabolically active cells.

For experiment [4], the system named is p-Akt. Put plainly: Akt/p-Akt measurements by Western blot. The class given is cell-based, human. The conditions noted are these: SUM149 cells; for total Akt protein levels: all doses and time-points tested. As for the experimental part:
Cell lysates were collected on ice using lysis buffer (1% Triton X, 150 mM NaCl, 25 mM Tris HCl,0.4 mM NaVO4, 0.4 mM NaF and protease inhibitor cocktail from Sigma, St. Louis, MO, USA) and vortexed periodically for 30 min. Lysates were centrifuged for 15 min at 4° C., and supernatants were collected. Total protein concentrations were determined using Bio-Rad DC Protein Assay reagents (Bio-Rad) following the manufacturer's protocol. Equal amounts of protein for each sample (40 μg to 50 μg per lane) were separated by SDS-PAGE, blotted onto nitrocellulose membranes, blocked with 5% non-fat milk, and probed with the appropriate dilution of the corresponding primary antibody. Once incubated with the primary antibody, membranes were rinsed and incubated with the corresponding HRP-conjugated secondary antibody. Bound antibodies were detected using an enhanced chemiluminescence substrate followed by autoradiography using a FluorChem™ 8900 (Alpha Innotech Corporation, San Leandro, CA, USA). Primary antibodies: anti-LCN2 (AF1757) (24 kDa), (R&D System, MN, USA); Caspase 9 (9502) (47 kDa), Caspase 3 (9665) (35 kDa), Cleaved Caspase 9 (20750) (37 kDa), Cleaved Caspase 3 (9664) (17/19 kDa), PARP-1 (46D11) (89,116 kDa), CDK4 (D9G3D) (30 kDa), CDK6 (DCS83) (36 kDa), Cyclin E1 (HE12) (48 kDa), Cyclin E2 (4132) (48 kDa), p21/Waf1/Cip1 (12D1) (21 kDa), p27/Kip1 (D69C12) (27 kDa), Akt (4685) (60 kDa), p-Akt (Ser473) (4060) (60 kDa) (Cell Signaling, Danvers, MA, USA); anti-β-actin (42 kDa) (Sigma). Secondary antibodies: anti-goat IgG horseradish peroxidase (HRP) (HAF 109) (R&D Systems), anti-mouse and anti-rabbit IgG (HRP) (Cell Signaling).
SUM149 cells (5.0×10^4 cells/mL) were seeded in 10-cm Petri plates and incubated at 37° C. Twenty-four hours later, cells were treated with the LCN2 inhibitors ZINC00784494 and ZINC00640089 at 10 μM and 1 μM concentrations. NT and DMSO (0.2% final concentration) treated cells were used as controls. Cell pellets of each condition were collected at 15 minutes, 1 hour, and 24 hours after drug treatment. The p-AKT Akt and Akt protein levels were assessed by Western blots as above described.

Experiment [5] concerns Caspase-3. The experiment can be described thus: Caspase-3 fluorometric activity assay. The class given is cell-based, human. The conditions noted are these: positive control, 0.5 nM; cell line not given. Here is the method: Caspase-3 activity was assessed using a caspase-3/CPP32 fluorometric assay kit (Bio Vision, CA, USA) as described in the manufacturer's protocol, with some modifications. Briefly, SUM149 (5.0×10^4 cells/mL) and MDA-IBC3 (5.5×10^4 cells/mL) were seeded in 10 cm Petri dishes and transiently transfected with siRNAs as above described. Docetaxel (0.5 nM final concentration) was used as a positive control. Seventy-two hours post-transfection cells were collected, protein extracts were obtained and incubated with the Asp-Glu-Val-Asp (DEVD) peptide substrate—which is conjugated to the 7-amino-4-trifluoromethyl coumarin (AFC)—at 37° C. for 60 min. Releasing of AFC was measured with a fluorometric plate reader (Varioskan LUX, ThermoFisher, USA) at an excitation wavelength of 400 nm and an emission wavelength of 505 nm. The fold-change increase in caspase-3 activity was determined by comparing the release of AFC from the siRNA-transfected cells with the AFC release by the untreated cells.

The test system of experiment [6] is MCF7-EV cells. Put plainly: Colony formation assay, MCF7-EV cells. The class given is cell-based, human. The following applies: 0.1 μM, 1 μM and 10 μM. As for the experimental part:
as §2
For cell viability, SUM149 (5.0×10^4 cells/mL) were seeded in 96-well plates. Twenty-four hours later, cells were treated with serial dilutions (0.01 μM, 0.1 μM, 1.0 μM, 10 μM, and 100 μM, final concentrations) of the LCN2 inhibitors. Seventy-two hours after treatment, cell viability was performed as above described, taking the DMSO (1%) treated OD values as the normalization control. […]

With `O=C(NC(Nc1ncccn1)C(=O)c1ccccc1)c1ccccc1` (stereo not drawn) [ZINC00230567], the “reduction in number of colonies formed” value in experiment [1] (10 μM) is reported as 62%.

With `O=C(CN1C(=O)c2cccc3cccc1c23)Nc1ccccc1C(F)(F)F` [ZINC00640089], the results for the “decrease in colony formation” value in experiment [2] (0.1 μM), in experiment [2] (1 μM) and in experiment [2] (10 μM) were 24%, 54% and 57%, respectively. Further, the cytotoxicity at 10 µM in experiment [3] stood at 35%. Also, the “reduction in number of colonies formed” value in experiment [1] (10 μM) is reported as 42%. For the same compound, the p-AKT protein levels entry in experiment [4] (10 μM and 1 μM) was “reduced p-Akt in a dose-dependent manner; also recorded: reduction”. The “total Akt protein levels” value in experiment [4] was “unaltered”.

As to `Cc1cc(-c2ccccc2)nc2cc(C(=O)N3CCCc4ccccc43)nn12` [ZINC00829534], in experiment [1] (10 μM), the “reduction in number of colonies formed” value worked out at 41%.

In the case of `CC(=O)O[C@@]12CO[C@@H]1C[C@H](O)[C@@]1(C)C(=O)[C@H](O)C3=C(C)[C@@H](OC(=O)[C@H](O)[C@@H](NC(=O)OC(C)(C)C)c4ccccc4)C[C@@](O)([C@@H](OC(=O)c4ccccc4)[C@H]21)C3(C)C` [Docetaxel], the “increase of caspase-3 activity” value in experiment [5] is “two-fold increase”.

For `CC(=O)c1cccc(Nc2nc(-c3cc4ccccc4oc3=O)cs2)c1` [ZINC00784494], the “decrease in colony formation” value in experiment [2] (0.1 μM) stood at 23%; in experiment [2] (1 μM), 41%; in experiment [2] (10 μM), 49%. For the same compound, the cytotoxicity at 10 µM in experiment [3] was 57%. Also, the colony formation result in experiment [6] is “did not cause any effect”. Further, the “reduction in number of colonies formed” value in experiment [1] (1 μM) is given as 43%; in experiment [1] (10 μM) it was 37%. Further, in experiment [4] (10 μM and 1 μM), the p-AKT protein levels entry is “reduced p-Akt in a dose-dependent manner”. Besides, the p-Akt protein levels result in experiment [4] (10 μM and 1 μM, 15 minutes and 1 hour after treatment, vs DMSO) is listed as “reduced”; in experiment [4] (24 hours after treatment), “not observed”. Moreover, the “total Akt protein levels” value in experiment [4] is listed as “unaltered”.

Values taken from patent US20250073257A1, “SMALL MOLECULE AND SIRNA INHIBITORS AGAINST LIPOCALIN-2” (UNIVERSITY OF PUERTO RICO, priority 2021, published 2025).
